Assay results reported in patent US8933099B2, “Monocyclic pyridine derivative” (Eisai R&D Management Co., Ltd., priority 2013, dated 2015).

What was measured:
[1] = tested on: human endometrial cancer cell line MFE280 xenograft; experiment: Antitumor effect in MFE280 subcutaneous xenograft model in mice; format: in vivo; conditions: oral, once a day for 14 days, tumor volume last day
Text: Human endometrial cancer cell line MFE280 (DSMZ Number ACC-410), which had been cultured in an RPMI-1640 medium containing 10% FBS, and penicillin and streptomycin, were adjusted to a concentration of 4.7×10^7 cells/mL with Hanks' Balanced Salt Solution (GIBCO 1124020) to prepare a cell suspension, and the suspension was mixed with […] (BD Biosciences, Cat#354234) in a ratio of 1:1 to prepare a cell suspension in a concentration of 2.4×10^7 cells/ml. The cell suspension was inoculated in a volume of 100 μL into a subcutaneous part of a right flank of nude mice, 7 weeks of age (BALB/cAJcl-nu/nu, female, Clea Japan Inc.). Thirty five days after cell inoculation, the shortest diameter and the longest diameter of a tumor in each mouse were measured by using an electronic digital caliper (Digimatic™ caliper, Mitutoyo Corporation), so as to calculate the volume of the tumor in accordance with the following calculation formula: Tumor volume(mm^3)=Longest diameter(mm)×Shortest diameter(mm)×Shortest diameter(mm)/2
On the basis of the volumes of tumors obtained on the fast day of administration, the nude mice were grouped such that averages of the tumor volumes were substantially equal among the groups. Each test substance was dissolved in DMSO, Tween 80 was added thereto to prepare a solution in a 10-fold concentration and the thus prepared solution was stored at the freezer before use. Immediately before the administration, the stock solution was diluted with a 5% glucose solution to obtain a final administration solution (in which a ratio in % among DMSO, Tween 80 and the 5% glucose solution was 3.5:6.5:90). Each evaluation sample was orally administered to test substance administration group at a volume of 0.4 mL per 20 g of body weight once a day continuously for 14 days, and in a control group, an administration solvent was orally administered under the same conditions. Incidentally, the experiment was conducted on groups each consisting of 5 mice.
With respect to each of the control group and test substance administration group, a ratio of the weight measured on the final day to the weight measured on the first day (relative body weight: RBW) was calculated. If a ratio of the RBW of the test substance administration group/the RBW of the control group is 0.9 or more, the corresponding test substance administration group was defined as a well-tolerated. In the test substance administration group thus defined as well-tolerated, a ratio of the tumor volume of the test substance-dosing group to the tumor volume of the control group obtained on the last day (TIC) (%) was calculated, and shown in Table 28.

[2] = tested on: cell line RT112/84 xenograft; experiment: Antitumor effect in RT112/84 subcutaneous xenograft model in mice; format: in vivo; conditions: oral, once a day for 14 days, tumor volume last day
Text: Human […] cancer cell line RT112/84 (ECACC Number EC85061106-F0), which had been cultured in an RPMI-1640 medium containing 10% […], and penicillin and streptomycin, were adjusted to a concentration of 1×10^8 cells/mL with Hanks' Balanced Salt Solution (GIBCO 1424020) to prepare a cell suspension, and the suspension was mixed with […] (BD Biosciences, Cat/354234) in a ratio of 1:1 to prepare a cell suspension in a concentration of 5×10^7 cells/ml. The cell suspension was inoculated in a volume of 100 μL into a subcutaneous part of a right flank of nude mice, 7 weeks of age (BALB/cAJcl-nu/nu, female, Clea Japan Inc.). Ten days after cell inoculation, the shortest diameter and the longest diameter of a tumor in each mouse were measured by using an electronic digital caliper (Digimatic™ caliper, Mitutoyo Corporation), so as to calculate the volume of the tumor in accordance with the following calculation formula: Tumor volume(mm^3)=Longest diameter(mm)×Shortest diameter(mm)×Shortest diameter(mm)/2 […]
With respect to each of the control group and test substance administration group, a ratio of the weight measured on the final day to the weight measured on the first day (relative body weight: RBW) was calculated. […]

## CNC(=O)n1ccc2cc(Oc3ccnc(NC(=O)c4ccc(C5CCN(CCO)CC5)cc4)c3)c(OCCOC)cc21 [Example 22, 5-((2-(4-(1-(2-Hydroxyethyl)piperidin-4-yl)benzamide)pyridin-4-yl)oxy)-6-(2-methoxyethoxy)-N-methyl-1H-indole-1-carboxamide]
[1]; 6.25 mg/kg
  T/C (%): 72%
[1]; 12.5 mg/kg
  T/C (%): 57%
[1]; 25 mg/kg
  T/C (%): 31%
[1]; 50 mg/kg
  T/C (%): 11%
[2]; 25 mg/kg
  T/C (%): 62%
[2]; 50 mg/kg
  T/C (%): 33%
